How the values were obtained:
[1] = system: HOP-92; assay: Growth inhibition of human HOP92 cells at 10^-5 M incubated for 48 hrs by sulforhodamine B assay relative to control; type: functional; details: HOP-92, 48 h, read-out: GI
[2] = system: LOX IMVI; assay: Growth inhibition of human LOXIMVI cells at 10^-5 M incubated for 48 hrs by sulforhodamine B assay relative to control; type: functional; details: read-out: GI
[3] = system: HOP-62; assay: Growth inhibition of human HOP62 cells at 10^-5 M incubated for 48 hrs by sulforhodamine B assay relative to control; type: functional; details: HOP-62, 48 h, read-out: GI
[4] = system: MOLT-4; assay: Growth inhibition of human MOLT4 cells at 10^-5 M incubated for 48 hrs by sulforhodamine B assay relative to control; type: functional; details: MOLT-4, 48 h, read-out: GI
[5] = system: SK-OV-3; assay: Growth inhibition of human SKOV3 cells at 10^-5 M incubated for 48 hrs by sulforhodamine B assay relative to control; type: functional; details: SK-OV-3, 48 h, read-out: GI
[6] = system: UO-31; assay: Growth inhibition of human UO31 cells at 10^-5 M incubated for 48 hrs by sulforhodamine B assay relative to control; type: functional; details: UO-31, 48 h, read-out: GI
[7] = system: PC-3; assay: Growth inhibition of human PC3 cells at 10^-5 M incubated for 48 hrs by sulforhodamine B assay relative to control; type: functional; details: PC-3, 48 h, read-out: GI
[8] = system: T47D; assay: Growth inhibition of human T47D cells at 10^-5 M incubated for 48 hrs by sulforhodamine B assay relative to control; type: functional; details: read-out: GI
[9] = system: UO-31; assay: Cell cycle arrest in human UO31 cells assessed as accumulation at S phase at 0.75 uM after 24 hrs by propidium iodide staining based flow cytometry (reference value: 24.47%); type: functional
[10] = system: UO-31; assay: Induction of apoptosis in human UO31 cells assessed as necrotic cells at 0.75 uM after 24 hrs by Annexin V-FITC/propidium iodide staining based flow cytometry (reference value: 0.08%); type: functional
[11] = system: UO-31; assay: Induction of apoptosis in human UO31 cells assessed as live cells at 0.75 uM after 24 hrs by Annexin V-FITC/propidium iodide staining based low cytometry (reference value: 97.84%); type: functional
[12] = system: UO-31; assay: Cell cycle arrest in human UO31 cells assessed as accumulation at G2 phase at 0.75 uM after 24 hrs by propidium iodide staining based flow cytometry (reference value: 5.49%); type: functional
[13] = system: UO-31; assay: Cell cycle arrest in human UO31 cells assessed as accumulation at G2/M phase at 0.75 uM after 24 hrs by propidium iodide staining based flow cytometry relative to control; type: functional
[14] = system: UO-31; assay: Induction of apoptosis in human UO31 cells assessed as early apoptotic cells at 0.75 uM after 24 hrs by Annexin V-FITC/propidium iodide staining based flow cytometry (reference value: 0.19%); type: functional
[15] = system: UO-31; assay: Antiproliferative activity against human UO31 cells after 48 hrs by SRB assay; type: functional; details: UO-31, 48 h
[16] = system: UO-31; assay: Induction of apoptosis in human UO31 cells assessed as late apoptotic cells at 0.75 uM after 24 hrs by Annexin V-FITC/propidium iodide staining based flow cytometry (reference value: 0.22%); type: functional
[17] = molecular target: T1, DNA topoisomerase 2-beta (Homo sapiens, UniProt Q02880); assay: Inhibition of human topoisomerase-2B after 2 hrs by ELISA
[18] = system: UO-31; assay: Antiproliferative activity against human UO31 cells after 48 hrs by MTT assay; type: functional, cell-based; details: UO-31, 48 h
[19] = system: UO-31; assay: Potency index, ratio of doxorubicin IC50 to compound IC50 for antiproliferative activity against human UO31 cells; type: functional
[20] = system: UO-31; assay: Cell cycle arrest in human UO31 cells assessed as apoptotic cells at 0.75 uM after 24 hrs by propidium iodide staining based flow cytometry (reference value: 0.49%); type: functional
[21] = molecular target: T1, DNA topoisomerase 2-beta; assay: Potency index, ratio of etoposide IC50 to compound IC50 for inhibition of human topoisomerase-2B
[22] = system: Staphylococcus aureus; assay: Antibacterial activity against Staphylococcus aureus at 37 degC measured after 24 hrs by agar disc diffusion method; type: functional
[23] = system: Pseudomonas aeruginosa; assay: Antibacterial activity against Pseudomonas aeruginosa at 37 degC measured after 24 hrs by agar disc diffusion method; type: functional
[24] = system: UO-31; assay: Induction of apoptosis in human UO31 cells assessed as caspase-3 activation by measuring active caspase-3 level at 0.75 uM by […] (reference value: 66 pg/ml); type: functional
[25] = system: Escherichia coli; assay: Antibacterial activity against Escherichia coli at 37 degC measured after 24 hrs by agar disc diffusion method; type: functional
[26] = system: UO-31; assay: Cell cycle arrest in human UO31 cells assessed as accumulation at G1 phase at 0.75 uM after 24 hrs by propidium iodide staining based flow cytometry (reference value: 69.55%); type: functional
[27] = molecular target: T1, DNA topoisomerase 2-beta; assay: Potency index, ratio of doxorubicin IC50 to compound IC50 for inhibition of human topoisomerase-2B
[28] = system: UO-31; assay: Cell cycle arrest in human UO31 cells assessed as accumulation at pre-G1 phase at 0.75 uM after 24 hrs by propidium iodide staining based flow cytometry relative to control; type: functional
[29] = system: Bacillus subtilis; assay: Antibacterial activity against Bacillus subtilis at 37 degC measured after 24 hrs by agar disc diffusion method; type: functional
[30] = molecular target: T1, DNA topoisomerase 2-beta; assay: Potency index, ratio of amsacrine IC50 to compound IC50 for inhibition of human topoisomerase-2B
[31] = system: RPMI-8226; assay: Growth inhibition of human RPMI8226 cells at 10^-5 M incubated for 48 hrs by sulforhodamine B assay relative to control; type: functional; details: RPMI-8226, 48 h, read-out: GI
[32] = system: SK-MEL-5; assay: Growth inhibition of human SK-MEL-5 cells at 10^-5 M incubated for 48 hrs by sulforhodamine B assay relative to control; type: functional; details: SK-MEL-5, 48 h, read-out: GI
[33] = system: MCF7; assay: Growth inhibition of human MCF7 cells at 10^-5 M incubated for 48 hrs by sulforhodamine B assay relative to control; type: functional; details: MCF7, 48 h, read-out: GI
[34] = system: MDA-MB-468; assay: Potency index, ratio of doxorubicin IC50 to compound IC50 for antiproliferative activity against human MDA-MB-468 cells; type: functional
[35] = system: MDA-MB-468; assay: Growth inhibition of human MDA-MB-468 cells at 10^-5 M incubated for 48 hrs by sulforhodamine B assay relative to control; type: functional; details: MDA-MB-468, 48 h, read-out: GI
[36] = system: HL-60(TB); assay: Growth inhibition of human HL-60(TB) cells at 10^-5 M incubated for 48 hrs by sulforhodamine B assay relative to control; type: functional; details: HL-60, 48 h, read-out: GI
[37] = system: MDA-MB-231; assay: Growth inhibition of human MDA-MB-231 cells at 10^-5 M incubated for 48 hrs by sulforhodamine B assay relative to control; type: functional; details: MDA-MB-231, 48 h, read-out: GI
[38] = system: SNB-75; assay: Growth inhibition of human SNB75 cells at 10^-5 M incubated for 48 hrs by sulforhodamine B assay relative to control; type: functional; details: SNB-75, 48 h, read-out: GI
[39] = system: MDA-MB-468; assay: Antiproliferative activity against human MDA-MB-468 cells after 48 hrs by MTT assay; type: functional, cell-based; details: MDA-MB-468, 48 h
[40] = system: A498; assay: Growth inhibition of human A498 cells at 10^-5 M incubated for 48 hrs by sulforhodamine B assay relative to control; type: functional; details: A498, 48 h, read-out: GI
[41] = system: IGROV-1; assay: Growth inhibition of human IGROV1 cells at 10^-5 M incubated for 48 hrs by sulforhodamine B assay relative to control; type: functional; details: IGROV-1, 48 h, read-out: GI
[42] = system: NCI-H226; assay: Growth inhibition of human NCI-H226 cells at 10^-5 M incubated for 48 hrs by sulforhodamine B assay relative to control; type: functional; details: NCI-H226, 48 h, read-out: GI
[43] = system: CCRF-CEM; assay: Growth inhibition of human CCRF-CEM cells at 10^-5 M incubated for 48 hrs by sulforhodamine B assay relative to control; type: functional; details: read-out: GI
[44] = system: K562; assay: Growth inhibition of human K562 cells at 10^-5 M incubated for 48 hrs by sulforhodamine B assay relative to control; type: functional; details: K562, 48 h, read-out: GI
[45] = system: SF-539; assay: Growth inhibition of human SF539 cells at 10^-5 M incubated for 48 hrs by sulforhodamine B assay relative to control; type: functional; details: SF-539, 48 h, read-out: GI
[46] = system: MDA-MB-468; assay: Antiproliferative activity against human MDA-MB-468 cells after 48 hrs by SRB assay; type: functional; details: MDA-MB-468, 48 h, read-out: LC50 (the source's name)

T1 sequence (Q02880 whole entry): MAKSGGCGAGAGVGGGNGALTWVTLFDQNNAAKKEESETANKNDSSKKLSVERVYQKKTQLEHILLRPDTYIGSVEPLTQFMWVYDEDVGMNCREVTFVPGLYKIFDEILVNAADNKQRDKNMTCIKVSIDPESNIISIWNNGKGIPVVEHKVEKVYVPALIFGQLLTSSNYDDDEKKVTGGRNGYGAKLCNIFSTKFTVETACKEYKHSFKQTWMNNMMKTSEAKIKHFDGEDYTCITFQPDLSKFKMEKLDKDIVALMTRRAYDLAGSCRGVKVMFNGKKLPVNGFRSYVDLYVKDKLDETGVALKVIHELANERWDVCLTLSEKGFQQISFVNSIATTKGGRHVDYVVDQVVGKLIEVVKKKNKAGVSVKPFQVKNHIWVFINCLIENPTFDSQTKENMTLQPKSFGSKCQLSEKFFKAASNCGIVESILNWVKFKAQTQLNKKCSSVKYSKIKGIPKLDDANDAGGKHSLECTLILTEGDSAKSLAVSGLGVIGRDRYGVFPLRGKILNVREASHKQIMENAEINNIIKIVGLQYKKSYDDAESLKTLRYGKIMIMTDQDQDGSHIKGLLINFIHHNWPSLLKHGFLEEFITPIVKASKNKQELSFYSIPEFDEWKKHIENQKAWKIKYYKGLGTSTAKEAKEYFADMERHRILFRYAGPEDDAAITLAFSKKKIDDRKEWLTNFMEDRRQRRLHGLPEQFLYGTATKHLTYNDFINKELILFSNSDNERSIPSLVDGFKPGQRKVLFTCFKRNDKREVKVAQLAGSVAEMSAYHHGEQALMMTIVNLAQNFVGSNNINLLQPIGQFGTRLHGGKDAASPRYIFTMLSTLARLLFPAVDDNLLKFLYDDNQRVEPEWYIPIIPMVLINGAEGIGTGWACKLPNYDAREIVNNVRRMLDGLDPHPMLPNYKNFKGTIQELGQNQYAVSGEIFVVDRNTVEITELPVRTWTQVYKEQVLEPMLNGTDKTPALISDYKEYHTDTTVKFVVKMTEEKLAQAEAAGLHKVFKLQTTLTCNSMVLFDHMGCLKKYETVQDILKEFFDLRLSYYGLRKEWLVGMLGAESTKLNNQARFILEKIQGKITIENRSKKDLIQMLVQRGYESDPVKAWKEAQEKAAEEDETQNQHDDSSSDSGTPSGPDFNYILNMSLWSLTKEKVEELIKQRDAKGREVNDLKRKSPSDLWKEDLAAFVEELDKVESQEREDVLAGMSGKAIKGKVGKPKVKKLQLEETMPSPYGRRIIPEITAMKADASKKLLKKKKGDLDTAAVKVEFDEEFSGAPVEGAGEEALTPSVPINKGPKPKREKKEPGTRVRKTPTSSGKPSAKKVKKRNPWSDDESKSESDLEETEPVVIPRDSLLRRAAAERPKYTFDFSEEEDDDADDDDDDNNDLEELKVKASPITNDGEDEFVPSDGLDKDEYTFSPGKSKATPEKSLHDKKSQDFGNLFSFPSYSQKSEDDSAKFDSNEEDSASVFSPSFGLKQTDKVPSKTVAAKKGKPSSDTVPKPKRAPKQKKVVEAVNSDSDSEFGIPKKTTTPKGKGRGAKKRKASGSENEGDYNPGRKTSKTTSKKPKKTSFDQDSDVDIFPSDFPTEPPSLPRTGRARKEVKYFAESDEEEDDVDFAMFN

O=C(CSc1nnc(CN2CCN(c3cc4c(cc3F)c(=O)c(C(=O)O)cn4C3CC3)CC2)o1)c1ccccc1
inhibition of growth at 10 µM [1]: < 20% | inhibition of growth at 10 µM [2]: 25.3% | inhibition of growth at 10 µM [3]: < 20% | inhibition of growth at 10 µM [4]: < 20% | inhibition of growth at 10 µM [5]: < 20% | inhibition of growth at 10 µM [6]: 20.3% | inhibition of growth at 10 µM [7]: 23.9% | inhibition of growth at 10 µM [8]: < 20%

O=C(CN1CCN(c2cc3c(cc2F)c(=O)c(C(=O)O)cn3C2CC2)CC1)N/N=C/c1ccccc1O
Activity [9]: 22.02% | Activity [10]: 0.87% | Activity [11]: 91.8% | Activity [12]: 11.28% | fold change (FC) [13]: 2.05 | Activity [14]: 2.64% | LC50 [15]: 15.2 µM | Activity [16]: 3.32% | IC50 [17]: 0.58 µM | IC50 [18]: 0.75 µM | Ratio IC50 [19]: 1.5 - 9 | Activity [20]: 6.83% | Ratio IC50 [21]: 1.5 | diameter of the inhibition zone (DIZ) [22]: 15 mm | diameter of the inhibition zone (DIZ) [23]: 17 mm | Activity [24]: 346.4 pg/mL | diameter of the inhibition zone (DIZ) [25]: 16 mm | Activity [26]: 59.87% | Ratio IC50 [27]: 6 | fold change (FC) [28]: 13.9 | diameter of the inhibition zone (DIZ) [29]: 18 mm | Ratio IC50 [30]: 5

O=C(CN1CCN(c2cc3c(cc2F)c(=O)c(C(=O)O)cn3C2CC2)CC1)N/N=C/c1ccccc1C(F)(F)F
inhibition of growth at 10 µM [31]: 25% | inhibition of growth at 10 µM [1]: 35.9% | inhibition of growth at 10 µM [32]: 22.1% | inhibition of growth at 10 µM [33]: < 20% | Ratio IC50 [34]: 1.3 | inhibition of growth at 10 µM [2]: 32.3% | inhibition of growth at 10 µM [35]: 34.7% | inhibition of growth at 10 µM [36]: < 20% | LC50 [15]: 15.9 µM | inhibition of growth at 10 µM [3]: < 20% | IC50 [18]: 4.92 µM | inhibition of growth at 10 µM [4]: 27.3% | Ratio IC50 [19]: 1.5 - 9 | inhibition of growth at 10 µM [37]: 23.6% | inhibition of growth at 10 µM [38]: 29.9% | IC50 [39]: 2.16 µM | inhibition of growth at 10 µM [40]: 20.7% | diameter of the inhibition zone (DIZ) [22]: 25 mm | inhibition of growth at 10 µM [41]: 33.4% | diameter of the inhibition zone (DIZ) [23]: 25 mm | inhibition of growth at 10 µM [42]: < 20% | diameter of the inhibition zone (DIZ) [25]: 26 mm | inhibition of growth at 10 µM [43]: < 20% | inhibition of growth at 10 µM [6]: 37.4% | inhibition of growth at 10 µM [44]: 21.2% | inhibition of growth at 10 µM [7]: 24.9% | inhibition of growth at 10 µM [45]: 22.5% | diameter of the inhibition zone (DIZ) [29]: 28 mm | inhibition of growth at 10 µM [8]: 25.1% | CC50 [46]: 15.6 µM

From ChEMBL document CHEMBL4196087 (Eur J Med Chem, 2018)
